Assay results taken from PMC8596838, “Xylose‐Configured Cyclophellitols as Selective Inhibitors for Glucocerebrosidase” (Chembiochem, 2021).
Read-outs that look alike come from different tables or passages of the source.

Experiments:
GBA2 = molecular target: T1, GBA2 (Homo sapiens, UniProt Q9HCG7); experiment: Fluorogenic substrate enzymatic assay, lysate of GBA/GBA2 KO HEK293T cells overexpressing GBA2; assay type: biochemical; settings: for (Ratio) GBA2/GBA / GBA2/GBA ratio, 3 h: IC50 ratio; for increase in GBA:GBA2 selectivity window compared to the conduritol analogue (13 or 14): IC50 ratio GBA2/GBA
T1 construct: expressed in transfected cells; host or cells: HEK293T (GBA/GBA2 KO background for the fluorogenic assay; endogenous-GBA background with GBA2 and GBA3 overexpressed for ABPP and intact-cell assays)
T1 sequence (Q9HCG7 1-927): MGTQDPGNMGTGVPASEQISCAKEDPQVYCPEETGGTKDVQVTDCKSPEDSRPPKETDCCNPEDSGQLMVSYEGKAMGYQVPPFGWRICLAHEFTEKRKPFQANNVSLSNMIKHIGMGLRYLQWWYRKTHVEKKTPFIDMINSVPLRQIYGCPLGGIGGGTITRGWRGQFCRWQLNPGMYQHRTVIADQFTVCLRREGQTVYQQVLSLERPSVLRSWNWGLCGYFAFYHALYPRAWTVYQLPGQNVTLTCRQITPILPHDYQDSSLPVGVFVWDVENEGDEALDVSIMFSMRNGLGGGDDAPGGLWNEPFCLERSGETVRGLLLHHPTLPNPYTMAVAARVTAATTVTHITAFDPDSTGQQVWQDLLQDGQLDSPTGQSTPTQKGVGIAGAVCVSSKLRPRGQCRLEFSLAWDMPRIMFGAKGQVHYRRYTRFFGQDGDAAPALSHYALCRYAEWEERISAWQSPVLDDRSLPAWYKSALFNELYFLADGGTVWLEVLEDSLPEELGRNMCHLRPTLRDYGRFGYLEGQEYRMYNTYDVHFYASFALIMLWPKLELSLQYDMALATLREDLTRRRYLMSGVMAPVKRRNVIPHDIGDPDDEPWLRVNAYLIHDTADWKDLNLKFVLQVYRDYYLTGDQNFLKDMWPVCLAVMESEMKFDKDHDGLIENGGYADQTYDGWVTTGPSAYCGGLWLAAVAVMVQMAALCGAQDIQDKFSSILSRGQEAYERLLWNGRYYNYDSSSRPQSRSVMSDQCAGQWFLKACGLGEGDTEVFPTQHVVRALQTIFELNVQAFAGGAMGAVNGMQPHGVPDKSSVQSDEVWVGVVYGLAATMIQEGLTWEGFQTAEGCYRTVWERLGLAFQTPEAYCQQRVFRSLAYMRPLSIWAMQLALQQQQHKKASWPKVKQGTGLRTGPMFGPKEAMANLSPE
Protocol: (§1) Enzyme activity assays: All assays were performed with lysates of HEK293T cells or zebrafish larvae in 96‐well plates at 37 °C. Samples were diluted with McIlvaine buffer (150 mM citric acid‐Na2HPO4) to a final volume of 25 μL, at pH appropriate for each enzyme. Assays were performed by incubating the samples with 100 μL 4‐methylumbelliferyl‐β‐D‐glucoside substrates diluted in McIlvaine buffer (with 0.1 % (w/v) bovine serum albumin (BSA)) for a period of 30 min or 3 h. The substrate mixtures used for each enzyme were as follows: GBA, 3.75 mM 4‐MU‐β‐D‐glucopyranoside (Glycosynth, Warrington Cheshire, UK) at pH 5.2, supplemented with 0.2 % (w/v) sodium taurocholate, 0.1 % (v/v) Triton X‐100, 0.1 % (w/v) bovine serum albumin (BSA); GBA2, 3.75 mM 4 MU‐β‐D‐glucopyranoside at pH 5.8; GBA3, 3.75 mM 4‐MU‐β‐D‐glucopyranoside at pH 6.0. After stopping the enzyme reaction with 200 μL 1 M NaOH‐glycine (pH 10.3), 4‐methylumbelliferone fluorescence was measured with a fluorimeter LS55 (Perkin Elmer, Waltham, MA, USA) with λEX 366 nm and λEM 445 nm. Enzyme activities were determined by subtraction of background (measured for incubations without enzyme). IC50 values were determined exactly as earlier described.[36]
The IC50 values were determined using a fluorogenic enzymatic assay. For GBA, 3.16 ng (53 fmol) of rhGBA, (recombinant human GBA, Imiglucerase) obtained from Sanofi Genzyme (Cambridge, MA, USA), was prepared in 12.5 μL McIlvaine buffer (150 mM, pH 5.2) supplemented with 0.1 % (v/v) Triton X‐100, and 0.2 % (w/v) sodium taurocholate, 0.1 % (w/v) bovine serum albumin (BSA). […] In the case of GBA2 or GBA3, lysates of GBA/GBA2 KO HEK293T cells overexpressing GBA2 or GBA3, respectively where used. The enzymatic activity of GBA, GBA2 and GBA3 were measured with 4MU‐β‐D‐glucoside substrate as described above.

GBA3 = molecular target: T2, GBA3 (Homo sapiens, UniProt Q9H227); experiment: Fluorogenic substrate enzymatic assay, lysate of GBA/GBA2 KO HEK293T cells overexpressing GBA3; assay type: biochemical; settings: for (Ratio) GBA3/GBA: IC50 ratio
T2 construct: expressed in transfected cells; host or cells: HEK293T (GBA/GBA2 KO background for the fluorogenic assay; endogenous-GBA background with GBA2 and GBA3 overexpressed for ABPP and intact-cell assays)
T2 sequence (Q9H227 1-469): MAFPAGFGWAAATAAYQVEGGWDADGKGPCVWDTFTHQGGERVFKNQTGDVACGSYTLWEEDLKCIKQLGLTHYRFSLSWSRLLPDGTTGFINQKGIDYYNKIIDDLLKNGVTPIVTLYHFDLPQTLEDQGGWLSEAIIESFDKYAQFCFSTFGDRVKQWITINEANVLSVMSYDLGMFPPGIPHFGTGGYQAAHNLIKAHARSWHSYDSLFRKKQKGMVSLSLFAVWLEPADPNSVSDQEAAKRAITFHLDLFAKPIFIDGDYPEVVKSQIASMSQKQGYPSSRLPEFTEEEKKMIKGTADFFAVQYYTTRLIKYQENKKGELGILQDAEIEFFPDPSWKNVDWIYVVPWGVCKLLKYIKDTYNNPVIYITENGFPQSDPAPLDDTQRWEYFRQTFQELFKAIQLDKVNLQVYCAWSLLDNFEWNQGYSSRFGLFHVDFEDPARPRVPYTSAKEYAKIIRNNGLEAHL
Protocol: Using fluorogenic substrate‐based assays, we determined apparent IC50 values at 30 min incubation time of the xylo‐cyclophellitols in rhGBA, and GBA2 and GBA3 lysates of cells expressing only each of the enzymes specifically.
as §1
The IC50 values were determined using a fluorogenic enzymatic assay. For GBA, 3.16 ng (53 fmol) of rhGBA, (recombinant human GBA, Imiglucerase) obtained from Sanofi Genzyme (Cambridge, MA, USA), was prepared in 12.5 μL McIlvaine buffer (150 mM, pH 5.2) supplemented with 0.1 % (v/v) Triton X‐100, and 0.2 % (w/v) sodium taurocholate, 0.1 % (w/v) bovine serum albumin (BSA). The enzyme was incubated with 12.5 μL of inhibitors diluted in McIlvaine buffer (150 mM, pH 5.2) at 37 °C for 30 min. In the case of GBA2 or GBA3, lysates of GBA/GBA2 KO HEK293T cells overexpressing GBA2 or GBA3, respectively where used. The enzymatic activity of GBA, GBA2 and GBA3 were measured with 4MU‐β‐D‐glucoside substrate as described above.

[1] = incubation time 30 min, enzymatic assay, ±SD, n=3, read-out: In vitro apparent IC50 GBA2
[2] = incubation time 30 min, enzymatic assay, ±SD, n=3, read-out: In vitro apparent IC50 GBA3
[3] = 30 min incubation time, read-out: apparent IC50 GBA2
[4] = enzymatic assay performed for 3 h, n=3, read-out: In vitro apparent IC50 GBA2, 3 h

Compound	(Ratio) GBA2/GBA (GBA2; in vitro, 30 min)	IC50 (GBA2; [1]) [µM]	(Ratio) GBA3/GBA (GBA3; in vitro, 30 min)	IC50 (GBA3; [2]) [µM]	IC50 (GBA2; [3]) [µM]	increase in GBA:GBA2 selectivity window compared to the conduritol analogue (13 or 14) (GBA2; in vitro 3 h)	GBA2/GBA ratio, 3 h (GBA2; in vitro 3 h)	IC50 (GBA2; [4]) [µM]	IC50 (GBA3; 30 min incubation time, read-out: apparent IC50 GBA3) [µM]	increase in inhibitory activity towards GBA2 of aziridines relative to epoxide analogues (GBA2; in vitro 3 h)	potency against GBA2 compared to 2 (GBA2; in vitro, 30 min)	potency against GBA3 compared to unsubstituted xylo-cyclophellitol aziridine 2 (GBA3; in vitro, 30 min) [fold]
CN1/C(=C/C=C/C=C/C2=[N+](CCCCCC(=O)NCc3cn(CCCCCCCCN4[C@H]5[C@H](O)[C@@H](O)[C@H](O)C[C@H]54)nn3)c3ccccc3C2(C)C)C(C)(C)c2ccccc21 (stereo partly drawn) [ABP 6]	84	0.544 ± 0.11	1561	10.1 ± 1	–	–	–	–	–	–	–	–
CN1/C(=C/C=C/C=C/C2=[N+](CCCCCC(=O)NCc3cn(C[C@@H]4[C@@H](O)[C@H](O)[C@@H](O)[C@@H]5O[C@H]45)nn3)c3ccccc3C2(C)C)C(C)(C)c2ccccc21 [ABP 9, reference compound]	> 111	–	128	5.78 ± 0.079	–	–	–	–	–	–	–	–
O[C@@H]1[C@@H](O)[C@H](O)C[C@H]2O[C@@H]12 [compound 1, xylo‐cyclophellitol]	>19	> 50	>19	> 50	> 25	seven‐fold increase	272	122 ± 30.2	> 25	–	–	–
O[C@@H]1[C@@H](O)[C@H](O)C[C@H]2N[C@@H]12 [compound 2, β‐D‐xylo‐Cyclophellitol aziridine]	44	31.6 ± 0.926	>35	> 25	> 25	three‐fold increase	22	5.31 ± 0.12	–	10–20 fold	–	–
OC[C@@H]1[C@@H](O)[C@H](O)[C@@H](O)[C@@H]2O[C@H]12 [compound 3, cyclophellitol]	0.4	0.148 ± 0.00751	129	51.5 ± 4.01	–	–	–	–	–	–	–	–
OC[C@@H]1[C@@H](O)[C@H](O)[C@@H](O)[C@@H]2N[C@H]12 [compound 4, cyclophellitol aziridine, reference compound]	0.8	0.279 ± 0.0445	99	33.8 ± 2.43	–	–	–	–	–	–	–	–
[N-]=[N+]=NCCCCCCCCN1[C@H]2[C@H](O)[C@@H](O)[C@H](O)C[C@H]21 (stereo partly drawn) [compound 5]	5317	6.38 ± 1.15	486	0.583 ± 0.202	–	–	–	–	–	–	five‐fold higher	> 40
